PMC6150365, “Simultaneous Determination of Seven Components in Rat Plasma by the UPLC-MS/MS Method and Application of Pharmacokinetic Studies to SimiaoYong’an Decoction” (Molecules : A Journal of Synthetic Chemistry and Natural …, 2017)

Experiment: in vivo
Settings: male, Sprague-Dawley, rat, po; for MRT last: MRT(0–t); for MRT inf: MRT(0–∞); for half-life: t1/2

C=C[C@H]1[C@H](O[C@@H]2O[C@H](CO)[C@@H](O)[C@H](O)[C@H]2O)OC=C2C(=O)OCC[C@H]21 [Sweroside, sweroside]
AUC(0-t) (2.15 g/kg): 6.9 ± 2.66 µg·h/mL | AUC(0-inf) (2.15 g/kg): 7.86 ± 4.08 µg·h/mL | Cmax (2.15 g/kg): 2.92 ± 1.77 µg/mL | MRT last (2.15 g/kg): 4.46 ± 1.2 h | MRT inf (2.15 g/kg): 7.5 ± 5.21 h | Tmax (2.15 g/kg): 0.96 ± 0.58 h | half-life (2.15 g/kg): 7.39 ± 6.33 h | AUC(0-t) (8.25 g/kg): 4.49 ± 0.28 µg·h/mL | AUC(0-inf) (8.25 g/kg): 4.53 ± 0.29 µg·h/mL | Cmax (8.25 g/kg): 1.97 ± 0.7 µg/mL | MRT last (8.25 g/kg): 3.3 ± 0.39 h | MRT inf (8.25 g/kg): 3.53 ± 0.29 h | Tmax (8.25 g/kg): 1.33 ± 0.49 h | half-life (8.25 g/kg): 4.14 ± 1.46 h
